Read-outs that look alike come from different tables or passages of the source.
How the values were obtained:
[1] = test system: RSK1 (RPS6KA1) gene expression; details: cited from earlier work; for RSK1 (agents that alter RSK1 expression): Table 1, pert_type trt_cp = small molecule, trt_sh = shRNA; for RPS6KA1 (small molecules that inhibit RSK1 expression): Table 2
[2] = test system: RSK1 (S230p) phosphorylation site; details: P100 dataset, cited from earlier work
[3] = target: T1, Signal transducer and activator of transcription 1 (STAT1)
T1 chain: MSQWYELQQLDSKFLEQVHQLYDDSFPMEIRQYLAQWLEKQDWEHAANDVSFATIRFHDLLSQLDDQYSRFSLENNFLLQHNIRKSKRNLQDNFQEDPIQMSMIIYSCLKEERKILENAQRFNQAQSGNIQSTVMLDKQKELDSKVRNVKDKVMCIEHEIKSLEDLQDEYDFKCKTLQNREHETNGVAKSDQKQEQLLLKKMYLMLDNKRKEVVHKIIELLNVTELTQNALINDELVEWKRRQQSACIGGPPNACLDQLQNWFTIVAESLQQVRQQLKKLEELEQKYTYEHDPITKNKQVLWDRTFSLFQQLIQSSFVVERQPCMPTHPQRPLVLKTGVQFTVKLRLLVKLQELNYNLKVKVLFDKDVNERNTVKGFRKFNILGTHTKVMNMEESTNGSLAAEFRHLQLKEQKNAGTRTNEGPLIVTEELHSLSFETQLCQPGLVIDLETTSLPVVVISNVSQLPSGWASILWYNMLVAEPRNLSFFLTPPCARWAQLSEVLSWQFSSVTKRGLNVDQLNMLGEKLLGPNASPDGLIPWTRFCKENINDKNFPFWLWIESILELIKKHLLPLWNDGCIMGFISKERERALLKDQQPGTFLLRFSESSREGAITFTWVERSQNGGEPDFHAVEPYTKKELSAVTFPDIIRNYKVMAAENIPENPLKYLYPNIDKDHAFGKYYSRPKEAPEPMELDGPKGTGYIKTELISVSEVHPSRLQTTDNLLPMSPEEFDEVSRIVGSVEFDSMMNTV

| Molecule | RSK1 (agents that alter RSK1 expression) [1] | further results |
| --- | --- | --- |
| CN(C)C(=O)c1cccc(-c2cccc(-c3nc(C(=O)NC4CCCCC4)cc4c3[C@@H](CCO)N([S@+]([O-])C(C)(C)C)C4)c2)c1 [BRD-K08663380] | −0.65 |  |
| CC1=NN(c2ccc(C(=O)O)cc2)C(=O)/C1=C/c1ccc(-c2cc(C)c(C)cc2[N+](=O)[O-])o1 [BRD-K68548958] | −0.99 |  |
| O=C1[C@H](Cc2ccc(O)cc2)N2C(=O)CCN(C(=O)NCc3ccccc3)[C@H]2CN1Cc1cccc2ccccc12 [BRD-K73261812] | −0.97 |  |
| Cc1c[nH]c(-c2cnc(NCCNc3ccc(C#N)cn3)nc2-c2ccc(Cl)cc2Cl)n1 [CHIR-99021] |  | modulation of RSK1-S230p phosphorylation ([2]; YAPC cell line): modulated |
| c1ccc2c(-c3cnn4cc(-c5ccc(N6CCNCC6)cc5)cnc34)ccnc2c1 [LDN-193189] | −1.38 |  |
| C=CCn1c(=O)c2cnc(Nc3ccc(N4CCN(C)CC4)cc3)nc2n1-c1cccc(C(C)(C)O)n1 [MK-1775] |  | RSK1 expression effect under various conditions ([1]; FIG. 20): U937-specific effect |
| CCNC(=O)c1noc(-c2cc(C(C)C)c(O)cc2O)c1-c1ccc(CN2CCOCC2)cc1 [NVP-AUY922] | −1.23 |  |
| Oc1cccc(-c2nc(N3CCOCC3)c3oc4ncccc4c3n2)c1 [PI-103] | −0.54 |  |
| CN[C@@H]1C[C@H]2O[C@@](C)([C@@H]1OC)n1c3ccccc3c3c4c(c5c6ccccc6n2c5c31)C(=O)NC4 [Staurosporine] |  | modulation of RSK1-S230p phosphorylation ([2]; MCF7 cell line): modulated |
| O=C(c1ccc(C(=O)N2CCC(N3CCCC3)CC2)c(Nc2ccccc2)c1)N1CCC(N2CCCC2)CC1 [UNC-1215] |  | modulation of RSK1-S230p phosphorylation ([2]; PC3 cell line): modulated |
| FC(F)c1nc2ccccc2n1-c1nc(N2CCOCC2)nc(N2CCOCC2)n1 [ZSTK-474] | −0.73 |  |
| C=C[C@](C)(O)CC/C=C(\C)C(=O)O[C@H]1[C@H](O)[C@@H](O)[C@H](O[C@@](C)(C=C)CC/C=C(\CO)C(=O)O[C@H]2C[C@]3(C(=O)O[C@@H]4O[C@H](CO)[C@@H](O)[C@H](O)[C@H]4O[C@@H]4O[C@@H](C)[C@H](O[C@@H]5O[C@@H](CO)[C@H](O)[C@H]5O)[C@@H](O[C@@H]5O[C@H](CO)[C@@H](O)[C@H](O)[C@H]5O)[C@H]4O)[C@H](O)C[C@]4(C)C(=CC[C@@H]5[C@@]6(C)CC[C@H](O[C@@H]7O[C@H](CO[C@@H]8O[C@H](C)[C@H](O)[C@H](O)[C@H]8O[C@@H]8OC[C@@H](O)[C@H](O)[C@H]8O)[C@@H](O)[C@H](O)[C@H]7NC(C)=O)C(C)(C)[C@@H]6CC[C@]54C)[C@@H]3CC2(C)C)O[C@@H]1C [avicin-g] | −1.17 |  |
| C/C=C/C/C=C/CCC(=O)[C@H]1O[C@H]1C(N)=O [cerulenin, (2R,3S)-3-[(4E,7E)-1-Oxo-4,7-nonadien-1-yl]-2-oxiranecarboxamide] | −1.40 | RPS6KA1 (small molecules that inhibit RSK1 expression) [1]: −1.40 |
| CCCC[C@@H](C)/C=C(C)/C=C(\C)C(=O)NC1=C[C@@](O)(/C=C/C=C/C=C/C(=O)NC2=C(O)CCC2=O)C2O[C@@H]2C1=O (stereo partly drawn) [manumycin-a, N-[(1S,5S,6R)-5-hydroxy-5-[(1E,3E,5E)-7-[(2-hydroxy-5-oxo-1-cyclopenten-1-yl)amino]-7-oxo-1,3,5-heptatrien-1-yl]-2-oxo-7-oxabicyclo [4.1.0]hept-3-en-3-yl]-2E,4E,6R-trimethyl,2,4-decadienamide] | −1.48 | RPS6KA1 (small molecules that inhibit RSK1 expression) [1]: −1.48 |
| C=C1[C@@H](O)[C@@H]2O[C@]3(CC[C@H](/C=C/[C@@H](C)[C@@H]4CC(C)=C[C@@]5(O[C@H](C[C@@](C)(O)C(=O)O)CC[C@H]5O)O4)O3)CC[C@H]2O[C@@H]1[C@@H](O)C[C@H](C)[C@H]1O[C@@]2(CCCCO2)CC[C@H]1C [okadaic acid] |  | modulation of RSK1-S230p phosphorylation ([2]; YAPC cell line): modulated |
| CC(C(=O)Nc1cccc(/N=C/c2c(O)ccc3ccccc23)c1)c1ccccc1 (stereo not shown) [salermide] | −0.98 | RPS6KA1 (small molecules that inhibit RSK1 expression) [1]: −0.98 |
| C[S+]([O-])CCCCN=C=S (stereo not shown) [sulforaphane] | −0.50 |  |
| C=CCNC1=C2C[C@@H](C)C[C@H](OC)[C@H](O)[C@@H](C)/C=C(\C)[C@H](OC(N)=O)[C@@H](OC)/C=C\C=C(/C)C(=O)NC(=CC1=O)C2=O [tanespimycin, 17-N-allylamino-17-demethoxygeldanamycin] |  | RPS6KA1 (small molecules that inhibit RSK1 expression) [1]: −1.17 |
| CC(C)C[C@@H](C(=O)N[C@H](C(=O)OC1CCCC1)c1ccccc1)[C@H](O)C(=O)NO [tosedostat, αS-[[(2R)-2-[(1S)-1-hydroxy-2-(hydroxyamino)-2-oxoethyl]-4-methyl-1-oxopentyl]amino]-benzeneacetic acid, cyclopentyl ester] | −0.96 | RPS6KA1 (small molecules that inhibit RSK1 expression) [1]: −0.96 |
| O=C(CCCCCCC(=O)Nc1ccccc1)NO [vorinostat] |  | modulation of RSK1-S230p phosphorylation ([2]; YAPC cell line): modulated |
| Ribosomal S6 Kinase-1 (RSK1), recombinant (protein) MEQDPKPPRLRLWALIPWLPRKQRPRISQTSLPVPGPGSGPQRDSDEGVLKEISITHHVKAGSEKADPSHFELLKVLGQGSFGKVFLVRKVTRPDSGHLYAMKVLKKATLKVRDRVRTKMERDILADVNHPFVVKLHYAFQTEGKLYLILDFLRGGDLFTRLSKEVMFTEEDVKFYLAELALGLDHLHSLGIIYRDLKPENILLDEEGHIKLTDFGLSKEAIDHEKKAYSFCGTVEYMAPEVVNRQGHSHSADWWSYGVLMFEMLTGSLPFQGKDRKETMTLILKAKLGMPQFLSTEAQSLLRALFKRNPANRLGSGPDGAEEIKRHVFYSTIDWNKLYRREIKPPFKPAVAQPDDTFYFDTEFTSRTPKDSPGIPPSAGAHQLFRGFSFVATGLMEDDGKPRAPQAPLHSVVQQLHGKNLVFSDGYVVKETIGVGSYSECKRCVHKATNMEYAVKVIDKSKRDPSEEIEILLRYGQHPNIITLKDVYDDGKHVYLVTELMRGGELLDKILRQKFFSEREASFVLHTIGKTVEYLHSQGVVHRDLKPSNILYVDESGNPECLRICDFGFAKQLRAENGLLMTPCYTANFVAPEVLKRQGYDEGCDIWSLGILLYTMLAGYTPFANGPSDTPEEILTRIGSGKFTLSGGNWNTVSETAKDLVSKMLHVDPHQRLTAKQVLQHPWVTQKDKLPQSQLSHQDLQLVKGAMAATYSALNSSKPTPQLKPIESSILAQRRVRKLPSTTL |  | phosphorylation of STAT1 at Ser727 in vitro (kinase reaction, immunoblot) [3]: RSK1 is capable of phosphorylating STAT1 at Ser727 in vitro |
